Experimental data reported in article PMC11329505 (Communications Chemistry, 2024).

Key:
AGAL5 = biological target: T1, AGAL5 (Blautia pseudococcoides, UniProt A0A1C7IHX3); experiment: pNP-αGal colorimetric assay with additive; format: biochemical; conditions: 5 mM maltose; pNP-αGal substrate
T1 sequence (A0A1C7IHX3 1-763): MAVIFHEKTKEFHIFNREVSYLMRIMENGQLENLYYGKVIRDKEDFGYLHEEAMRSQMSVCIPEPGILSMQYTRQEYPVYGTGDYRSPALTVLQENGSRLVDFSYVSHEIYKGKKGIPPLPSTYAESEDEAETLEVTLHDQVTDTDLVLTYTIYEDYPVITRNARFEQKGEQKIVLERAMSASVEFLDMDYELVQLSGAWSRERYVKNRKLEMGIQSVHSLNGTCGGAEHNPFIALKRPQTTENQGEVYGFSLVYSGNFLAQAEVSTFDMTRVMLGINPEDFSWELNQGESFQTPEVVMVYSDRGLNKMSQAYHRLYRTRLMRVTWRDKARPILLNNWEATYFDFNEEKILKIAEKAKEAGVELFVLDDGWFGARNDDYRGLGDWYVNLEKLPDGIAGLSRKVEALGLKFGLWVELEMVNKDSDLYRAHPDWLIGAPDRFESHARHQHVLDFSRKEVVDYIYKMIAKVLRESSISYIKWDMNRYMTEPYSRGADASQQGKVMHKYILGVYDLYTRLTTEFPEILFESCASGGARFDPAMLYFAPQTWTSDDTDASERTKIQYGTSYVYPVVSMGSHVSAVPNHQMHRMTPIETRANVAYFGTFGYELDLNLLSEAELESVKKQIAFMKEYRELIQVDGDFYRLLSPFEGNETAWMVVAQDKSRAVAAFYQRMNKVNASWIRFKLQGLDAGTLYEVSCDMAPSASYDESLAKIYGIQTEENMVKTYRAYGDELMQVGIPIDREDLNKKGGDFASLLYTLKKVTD

AGAL3 = biological target: T2, AGAL3 (Turicibacter bilis, UniProt A0A9Q9CI38); experiment: pNP-αGal colorimetric assay with additive; format: biochemical; conditions: 5 mM maltose; pNP-αGal substrate
T2 sequence (A0A9Q9CI38 1-743): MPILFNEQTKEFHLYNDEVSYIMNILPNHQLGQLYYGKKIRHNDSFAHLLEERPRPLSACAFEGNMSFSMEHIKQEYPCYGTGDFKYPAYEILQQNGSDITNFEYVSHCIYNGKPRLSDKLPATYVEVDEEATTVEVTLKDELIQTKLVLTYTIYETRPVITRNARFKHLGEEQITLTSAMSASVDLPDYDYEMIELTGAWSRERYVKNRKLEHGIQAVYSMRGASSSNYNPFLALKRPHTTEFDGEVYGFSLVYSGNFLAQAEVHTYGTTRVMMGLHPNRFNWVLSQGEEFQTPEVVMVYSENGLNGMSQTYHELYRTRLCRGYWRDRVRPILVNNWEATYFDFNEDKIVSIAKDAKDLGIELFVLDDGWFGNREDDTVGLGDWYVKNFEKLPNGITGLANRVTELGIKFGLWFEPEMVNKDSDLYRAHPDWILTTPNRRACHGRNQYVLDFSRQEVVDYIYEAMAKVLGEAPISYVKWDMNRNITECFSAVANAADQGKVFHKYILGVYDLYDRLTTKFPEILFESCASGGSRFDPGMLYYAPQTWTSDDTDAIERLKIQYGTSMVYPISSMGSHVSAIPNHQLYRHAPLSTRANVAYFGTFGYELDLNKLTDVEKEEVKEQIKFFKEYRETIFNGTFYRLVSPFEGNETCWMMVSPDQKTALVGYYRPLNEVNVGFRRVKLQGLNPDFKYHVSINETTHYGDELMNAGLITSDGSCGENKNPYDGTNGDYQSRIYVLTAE

Compound: OC[C@H]1O[C@H](O[C@H]2[C@H](O)[C@@H](O)C(O)O[C@@H]2CO)[C@H](O)[C@@H](O)[C@@H]1O (some centres unmarked) [maltose]
- inhibition at 5 mM (AGAL5): maltose had an inhibitory effect on AGAL3 and AGAL5
- inhibition at 5 mM (AGAL3): maltose had an inhibitory effect on AGAL3 and AGAL5
